Article PMC4558628 (International Journal of Clinical Pharmacology and …, 2014)
Where “and” joins values, the source holds several entries; their conditions need not be identical. Equal values may be shown once. Read-outs that look alike come from different tables or passages of the source.

Legend:
[1] = design: method as in PMID 21189429, PMID 6643696; details: under fed conditions; cited from earlier work
[2] = Study 1 safety: treatment-emergent adverse events; details: drug administered alone; n = 14
Source text: (§2) For each study, the participants were enrolled at different individual study centers in the US. Study 1 (rifampin study, NCT01395927) was a single-center, open-label, fixed-sequence study to evaluate the effects of steady-state rifampin on the single-dose PK of canagliflozin. The study consisted of a screening period of 20 days (from day –21 to ‒2), a 14-day open-label period (from day –1 to 13), followed by an end-of-study period (5 – 7 days) consisting of follow-up assessments. Participants received canagliflozin 300 mg (tablet) q.d. on day 1 and rifampin 600 mg q.d. (as two 300 mg capsules) on days 4 – 9. On day 10, canagliflozin (300 mg) plus rifampin (600 mg) was administered, followed by rifampin alone (600 mg) administration on days 11 – 12. The study drugs were administered under a fasted state.
(§3) Safety and tolerability were monitored throughout all three studies by evaluation of the incidence and the type of treatment-emergent adverse events (TEAEs), and change from baseline in: clinical laboratory tests (including hematology, serum chemistry, urinalysis, and urine uric acid analysis (study 2 only)), physical examination of all body systems except genitalia and breast (by a study physician), body weight, height, and BMI, vital signs (including systolic and diastolic blood pressure, heart rate, and body temperature), and 12-lead electrocardiographys (ECGs) (including cardiac rhythm, waveform morphology, and interval duration).
(§4) Results of the clinical laboratory parameters and vital signs were summarized using descriptive statistics.

[3] = Study 1: effect of steady-state rifampin on single-dose pharmacokinetics of canagliflozin, M7 and M5; details: day 10 (with canagliflozin, fasted) vs day 9 (alone, fed)
Source text: as §2
(§5) Study 1: Venous blood (4 mL each) samples for the determination of canagliflozin, M7, and M5 plasma concentrations were collected pre-dose, and up to 72 hours post-dose (at 0.5, 1, 1.5, 2, 3, 4, 6, 8, 10, 12, 16, 24, 48, and 72 hours) on days 1 and 10. Urine samples for the determination of canagliflozin, M7, and M5 in urine were collected over the intervals of 0 – 4 hours, 4 – 12 hours, 12 – 24 hours, 24 – 48 hours, and 48 – 72 hours on days 1 and 10. Venous blood samples (2 mL each) for the determination of rifampin plasma concentrations were collected 2 hours after rifampin administration on days 9 and 10.
(§6) Blood samples for canagliflozin, M7 and M5, rifampin and probenecid were centrifuged (10 minutes at 1,300 rpm), and the obtained plasma was stored at or below –20 °C. […] Urine samples were collected in polyethylene containers for the PK evaluation of canagliflozin, M7, and M5. Two aliquots (3 mL in study 1 and 2 mL in study 2) of urine sample were transferred into polyethylene tubes and were stored at or below –20 °C.
(§7) The EDTA plasma samples were analyzed to determine the concentrations of canagliflozin with a validated [29, 30] liquid chromatography coupled to tandem mass spectrometry/mass spectrometry (LC-MS/MS) method (Frontage, Shanghai, China). A ^13C6 analogue of canagliflozin was used as internal standard (IS). Briefly, the sample was processed using a liquid-liquid extraction with tert-butyl methyl ether. The LC phase used a 5 cm × 4.6 mm column packed with XBridge C18 (Waters, Milford, MA, USA) with a mobile phase of ammonium acetate 0.01M (30%) and methanol (70%), and a flow rate of 1.2 mL/min. Quantification was achieved by MS/MS detection with an API4000, equipped with TurboIonSpray (TIS) interface (AB Sciex, Framingham, MA, USA), in the positive ion multiple reaction monitoring (MRM) mode. Canagliflozin and IS were monitored at mass transitions m/z 462.1 → 267.0 and m/z 468.1 → 273.0, respectively. The quantitation range was 5.0 – 10,000 ng/mL.
(§8) Plasma (validated) and urine (qualified) concentrations of M7 and M5 were also determined using ^13C6-canagliflozin as IS at Frontage Laboratories (Shanghai) Co., Ltd. Samples underwent protein precipitation, with acetonitrile. The LC-MS/MS quantitation was done with the same equipment as for canagliflozin. The LC phase used a 5 cm × 4.6 mm column packed with XBridge C18 with a mobile phase of ammonium acetate 0.01M (pH 4) and methanol at ratio 40/60 (v/v) at a flow rate of 1.2 mL/min. After 3.5 minutes, the composition was changed to 98% methanol for 1 minute to flush the column. Using positive ion MRM on an API4000, equipped with TIS, both metabolites were measured at mass transition m/z 638.2 → 427. The quantitation range was 5.0 – 10,000 ng/mL for both metabolites in plasma, and 100 – 100,000 ng/mL in urine.
(§9) Pharmacokinetic analyses of plasma and urine concentrations was done by non-compartmental method using validated WinNonlin® software Version 5.2.1 (Pharsight Corporation, Mountain View, CA, USA).

[4] = system: OAT1; details: in vitro studies; no reference given; cited from earlier work
[5] = Study 3 safety: treatment-emergent adverse events; assay type: in vivo, human
Experimental: (§10) The study consisted of a 3-week screening period (from day –22 to –2), an 11 day open-label period (from day –1 to 10), followed by an end-of-study period consisting of 2 follow-up assessments occurring from 7 to 10 days and again from 14 to 18 days after the last dose of the study drug administration. Canagliflozin 300 mg (tablet) q.d. was administered on days 1 through 8 under fasted state.
as §3

[6] = in vivo
Source text: as §2, §5, §6, §7, §8, §9

[7] = system: multidrug resistance protein 2 (MRP2); design: method as in earlier work; details: in vitro experiments; cited from earlier work
[8] = Study 2 safety: treatment-emergent adverse events; assay type: in vivo, human
Experimental: (§1) The study consisted of a 19-day screening period (from day –21 to –3), a 20 day open-label period (from day –2 to 18), followed by an end-of-study period (7 – 10 days). […] Participants received study drugs under fasted state on days 14 and 17. On all other study days, participants received a standardized meal 1 hour after the study drug administration. Diet was standardized in order to stabilize uric acid levels, and participants were advised not to consume highly purine-enriched foods.

[9] = design: method as in PMID 22226086, PMID 22492586; details: canagliflozin 300 mg b.i.d., cited from earlier work
[10] = system: OAT3; details: no reference given; cited from earlier work
[11] = Study 2: effect of multiple-dose probenecid on steady-state pharmacokinetics of canagliflozin, M7 and M5; assay type: in vivo, human; details: for trough plasma concentration, mean (SD): canagliflozin 300 mg q.d.; for % Ae (dose): cumulative amount excreted into the urine: corrected for molecular weight when necessary; for tmax.ss: median (range)
Experimental: as §1

[12] = in vivo; remark: listed apart in the source
Source text: as §2, §3, §4

[13] = system: P-gp; design: method as in unpublished data; details: MDR1-expressing MDCK cells; ref unpublished data; cited from earlier work
[14] = Safety and tolerability across the three studies; assay type: in vivo, human
Source text: as §3, §4

[15] = human, in vivo
Experimental: as §10
Study 3: Venous blood (4 mL each) samples for the determination of canagliflozin plasma concentration were collected at pre-dose on days 2, 3, 4, 5, and 6, and at pre-dose and up to 24 hours post-dose (at 0.5, 1, 1.5, 2, 3, 4, 5, 6, 10, 12, 16, and 24 hours) on days 7 and 8.
as §6, §7
Pharmacokinetic analyses of plasma and urine concentrations was done by non-compartmental method using validated WinNonlin® software Version 5.2.1 (Pharsight Corporation, Mountain View, CA, USA). […] The assessed pharmacokinetic parameters of canagliflozin, M7, and M5 in study 2, and of canagliflozin in study 3 were: Cmax during a dosing interval at steady state (Cmax.ss), observed plasma concentration before dosing or at the end of a dosing interval (Ctrough; only for canagliflozin), tmax during a dosing interval at steady state (tmax.ss), and AUC during a dosing interval at steady state (AUCτ.ss). Additionally, M/P ratio (corrected for the differences in molecular weights) for Cmax.ss, AUCτ.ss, Ae during a collection interval (Aet1-t2), %Ae dose, and CLR were calculated for study 2.
A mixed-effects model was fitted to the log-transformed data of AUC or Cmax as dependent variables, treatment (with or without coadministration of the other drug) as a fixed effect, and participant as a random effect. The estimated least-square means and intra-participant variability from the mixed-effect model was used to construct 90% confidence interval (CI) for the difference in means of AUC or Cmax on the log-scale between the two treatments. The limits of the CIs were retransformed using antilogarithms to obtain the 90% CI for the ratio of the geometric mean AUC or Cmax.

[16] = system: P-glycoprotein (P-gp); design: method as in earlier work; details: in vitro experiments; cited from earlier work
[17] = design: method as in PMID 23670707; details: cited from earlier work
[18] = system: OATP1B1; details: in vitro studies; no reference given; cited from earlier work
[19] = canagliflozin and probenecid coadministration, 1/12
[20] = canagliflozin + probenecid (test), geometric mean, n = 11
[21] = canagliflozin + probenecid vs canagliflozin alone
[22] = canagliflozin + probenecid, arithmetic mean (SD)
[23] = canagliflozin alone (reference), geometric mean, n = 11
[24] = canagliflozin alone, arithmetic mean (SD)
[25] = probenecid coadministration vs canagliflozin alone

## CO[C@H]1/C=C/O[C@@]2(C)Oc3c(C)c(O)c4c(O)c(c(/C=N/N5CCN(C)CC5)c(O)c4c3C2=O)NC(=O)/C(C)=C\C=C\[C@H](C)[C@H](O)[C@@H](C)[C@@H](O)[C@@H](C)[C@H](OC(C)=O)[C@@H]1C [rifampin]
[1]
  reduction of rifampin absorption: 30%
[2]
  participants with TEAEs: 50%
[3]
  increase in plasma rifampin concentration at 2 hours: 24%

## Canagliflozin
[4]
  substrate of OAT1: not a substrate
[5]; canagliflozin alone, 2/18
  participants with diarrhea: 11.1%
  participants with oropharyngeal pain: 11.1%
[5]; canagliflozin alone, 6/18
  participants reporting TEAEs: 33.3%
[5]; canagliflozin and cyclosporine A coadministration, 15/18
  participants with flushing: 83.3%
[5]; canagliflozin and cyclosporine A coadministration, 17/18
  participants reporting TEAEs: 94.4%
[6]; human
  AUC∞: 20,938.95 ng×h/mL
  CLR (renal clearance, Ae0–72/AUC0–72h): 0.0849 (0.0318) L/h
  Cmax: 2,358.29 ng/mL
  t1/2: 12.9 (2.42) h
  tmax: 2.00 (1.00 – 4.00) h
[6]; human, 300 mg
  AUC∞: 21,695 (6151) ng×h/mL
  Cmax: 2,474 (805) ng/mL
[6]
  Ae (% dose): cumulative amount excreted into the urine: 0.578 (0.180) % dose
[7]
  substrate of MRP2: substrate
[8]; canagliflozin alone, 2/14
  participants with headache: 14.3%
[8]; canagliflozin alone, 4/14
  participants with ≥ 1 TEAE: 28.6%
[8]; [19]
  participants with abdominal discomfort: 8.3%
  participants with diarrhea: 8.3%
  participants with headache: 8.3%
  participants with muscle twitching: 8.3%
  participants with musculoskeletal pain: 8.3%
  participants with pruritis: 8.3%
  participants with urethral pain: 8.3%
[8]; canagliflozin and probenecid coadministration, 5/12
  participants with ≥ 1 TEAE: 41.7%
[9]; 2-week multiple-dose study and 12-week dose-ranging study in T2DM
  tolerability: well-tolerated
[9]
  plasma AUCτ.ss higher than with the 300 mg q.d. dose: 93%
  plasma Cmax.ss higher than with the 300 mg q.d. dose: 32%
[10]
  substrate of OAT3: not a substrate
[11]; canagliflozin 300 mg q.d. + probenecid 500 mg b.i.d. (day 17), arithmetic mean (SD), n = 12
  AUC∞.ss: 26,225 (5261) ng×h/mL
[11]; canagliflozin 300 mg q.d. alone (day 14), arithmetic mean (SD), n = 12
  AUC∞.ss: 21,861 (4290) ng×h/mL
[11]; day 13
  trough plasma concentration, mean (SD): 381 (110) ng/mL
[11]; day 14
  trough plasma concentration, mean (SD): 366 (117) ng/mL
[11]; day 15
  trough plasma concentration, mean (SD): 358 (110) ng/mL
[11]; [20]
  AUC∞.ss: 26,011.71 ng×h/mL
  Cmax.ss: 3,008.66 ng/mL
[11]; [21]
  AUCτ.ss, estimated ratio (test/reference) of geometric means (90% CI): 120.74 (116.37; 125.27) %
  AUC∞.ss, estimated ratio (test/reference) of geometric means (90% CI): 120.74 (116.37; 125.27) %
  Cmax.ss, estimated ratio (test/reference) of geometric means (90% CI): 113.37 (100.37; 128.06) %
[11]; [22]
  CLR (renal clearance, Ae24/AUC24): 0.0569 (0.00944) L/h
  % Ae (dose): cumulative amount excreted into the urine: 0.495 (0.136) % dose
[11]; canagliflozin + probenecid
  tmax.ss: 1.67 (1.42 – 5.92) h
[11]; [23]
  AUC∞.ss: 21,543.95 ng×h/mL
  Cmax.ss: 2,653.85 ng/mL
[11]; [24]
  CLR (renal clearance, Ae24/AUC24): 0.0868 (0.0297) L/h
  % Ae (dose): cumulative amount excreted into the urine: 0.609 (0.217) % dose
[11]; canagliflozin alone
  tmax.ss: 1.92 (1.42– 3.92) h
[11]; plasma, canagliflozin 300 mg q.d. + probenecid 500 mg b.i.d. (day 17), arithmetic mean (SD), n = 12
  Cmax.ss: 3,105 (680) ng/mL
[11]; plasma, canagliflozin 300 mg q.d. alone (day 14), arithmetic mean (SD), n = 12
  Cmax.ss: 2,699 (814) ng/mL
[11]; [25]
  decrease in mean CLR: ~ 34%
  increase in AUCτ.ss (systemic exposure): 21%
  increase in Cmax.ss: 13% and ~ 13%
[12]
  participants with TEAEs: 21.4%
  participants with abdominal discomfort: 7.1%
  participants with polyuria: 7.1%
  participants with thirst: 7.1%
[13]
  P-gp substrate status: P-gp substrate
  basal-to-apical/apical-to-basal efflux ratio: 2.0
[14]; any of the three studies
  changes in clinical laboratory values, vital signs, physical examinations, or ECGs: No consistent, clinically relevant changes
  deaths, serious TEAEs, or discontinuations due to TEAEs: No deaths, serious TEAEs, or discontinuations due to TEAEs
[14]; canagliflozin 300 mg coadministered with rifampin, probenecid, and cyclosporine A, healthy participants
  tolerability: generally well-tolerated
[15]
  AUCτ.ss: 22,243.50 ng×h/mL
  Cmax.ss: 2,864.03 ng/mL
  tmax.ss: 2.00 (1.00 – 3.00) h
[15]; 300 mg
  AUCτ.ss: 22,158 (4203) ng×h/mL
  Cmax.ss: 2,887 (735) ng/mL
[16]
  substrate of P-glycoprotein (P-gp): substrate
[17]
  canagliflozin dose excreted in urine as unchanged canagliflozin: less than 1%
[18]
  substrate of OATP1B1: not a substrate
